Active and inactive are the calls of the source.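 How the source made its calls: active means AC50 no more than tenfold above the top dose tested, or full inhibition at every dose with a flat fit (cut at about 19 µM in these data); inconclusive means flat curve fit with inhibition between 30% and 70%, or poor fit; inactive means AC50 more than tenfold above the top dose tested.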
Test system: HMLE_sh_eGFP viability, CellTiter-Glo luminescence, 72 h
Experiment: viability loss of HMLE_sh_eGFP cells – cell-based, luminescence, counter-screen for HMLE_sh_ECad selective toxicity project, dose response (AID 463074);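 further: counterscreen control line to flag general toxicity for the HMLE_sh_ECad screen; potency for loss of viability as luminescence drops below DMSO wells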

| SMILES | AC50 |
| --- | --- |
| Cc1cc(C(=O)CN2C(=O)C(=O)N(Cc3ccccc3)C2=O)c(C)n1Cc1ccccc1 | 11.8 µM |
| O=c1cc(-c2ccccc2)[nH]n1-c1nc2ccccc2s1 | 5.53 µM |
| OCCCn1c(CCNc2nc(-c3ccc(Cl)cc3)cs2)nc2cc(C(F)(F)F)ccc21 | 11.3 µM |
| CC1=NN(c2ccccc2)C(=O)/C1=C/c1c(O)n(-c2ccc(F)cc2)[nH]c1=O | 15.8 µM |
| Cc1ccc(/C=C/C(=O)NCC2COc3ccccc3O2)o1 (stereo unspecified) | > 19.5 µM (inactive) |
| O=[N+]([O-])c1ccc(O)c(-c2nc(-c3ccccc3)c(-c3cccs3)[nH]2)c1 | 1.69 µM |
| Cc1nc2ccccc2n1/N=C/c1ccc([N+](=O)[O-])o1 | 13.9 µM |
| Cc1cc(C)cc(NC(=O)CSc2ccc(-c3ccccn3)nn2)c1 | 3.61 µM |
| Cc1ccc(S(=O)(=O)Nc2ccc(NC(=O)Nc3cccc(C(F)(F)F)c3)cc2)cc1 | 2.51 µM |
| CN(CC(=O)Nc1ccccc1Cl)C(=O)c1cccc(-n2cccc2)c1 | > 19.5 µM (inactive) |
| CN(C)CCCNc1ccc(-c2cc(Nc3cccc(Cl)c3)ncn2)cn1 | 4.8 µM |
| COc1ccc(/C=N/OCC(=O)N2CC3(C)CC2CC(C)(C)C3)cc1 (stereo unspecified) | 14.3 µM |
| CCN1CCN(Cc2ccc(OCc3ccccc3)cc2)CC1 | 4.38 µM |
| Cc1sc2ncnc(N3CCN(CCOc4ccc(Cl)cc4)CC3)c2c1C | 7.16 µM |
| CCC1(C)Cc2c(sc3nc(SC)n(Cc4ccccc4)c(=O)c23)CO1 (stereo unspecified) | 2.77 µM |
| CC1CCC2C(=O)N(c3ccc(NC4CCCCC4)c([N+](=O)[O-])c3)C(=O)C2C1 (stereo unspecified) | 4.01 µM |
| COc1ccc(NC(=O)c2ccc(COc3ccccc3Br)o2)cc1OC | 0.756 µM |
| Cc1cc([N+](=O)[O-])ccc1-c1ccc(C2Nc3ccccc3C(=O)N2O)o1 (stereo unspecified) | 6.45 µM |
| Cc1cc2ccccn2c1C(=O)c1ccc([N+](=O)[O-])o1 | 5.71 µM |
| COc1cccc(NP(=O)(Oc2ccccc2)Oc2ccccc2)c1 | 15.1 µM |
| COc1ccc(/C=C2/C(=O)N(c3nc4ccccc4s3)N=C2CSc2ccc(Cl)cc2)cc1 | 6.5 µM |
| C=CCn1c(CNc2ccccc2)nnc1SCC(=O)N/N=C/c1ccc(O)cc1O | 3.23 µM |

| SMILES | AC50 |
| --- | --- |
| O=C1CC(c2cc(Br)ccc2F)c2cc3c(cc2N1)CCC3 (stereo unspecified) | 0.196 µM |
| C=C(C(=O)c1ccccc1)C(CC(=O)c1ccccc1)c1ccccc1 (stereo unspecified) | 3.6 µM |
| S=C(NCCC(c1ccccc1)c1ccccc1)Nc1cccc(Cl)c1 | 2.79 µM |
| CC(=O)Nc1ccc(NC(=O)c2nc(S(=O)(=O)Cc3cccc(C)c3)ncc2Cl)cc1 | 4.99 µM |
| CC(C)N1CCN(Cc2ccc(OC3CCCC3)cc2)CC1CCO (stereo unspecified) | 16.7 µM |
| CC(C)(C)OC(=O)[C@H](Cc1ccccc1)NC(=O)c1[nH]cnc1C(=O)Nc1cccc(Cl)c1 | 3.93 µM |
| Cc1ccc(Oc2c(C(N)=O)cc([N+](=O)[O-])cc2[N+](=O)[O-])cc1 | 3.84 µM |
| Cc1cc(C)cc(NC(=O)Nc2ccc(NC(=O)c3ccccc3O)cc2)c1 | > 19.5 µM (inactive) |
| COc1cc(CNC2CCCC2)cc(Cl)c1OCc1ccccc1Cl | 6.95 µM |
| COc1ccc(OC)c(NC(=O)c2nc(S(=O)(=O)Cc3ccccc3)ncc2Cl)c1 | 6.74 µM |
| O=S(=O)(Nc1nc2ccccc2nc1Nc1ccc(N2CCOCC2)cc1)c1cc(Cl)ccc1Cl | 4.23 µM |
| CCN1CCN(c2cc(-c3ccccc3)nc3cc(-c4cccc(F)c4)nn23)CC1 | 5.65 µM |
| Cc1ccc(S(=O)(=O)N2[C@@H](c3ccc(C(C)(C)C)cc3)C(C(=O)O)=CC[C@H]2c2cccc(Cl)c2)cc1 | 4.26 µM |
| CC(C)c1ccc(-c2cc(C(=O)N3N=C(C(F)F)CC3(O)C(F)F)c3ccccc3n2)cc1 (stereo unspecified) | 6.3 µM |
| C=CCc1cccc(/C=N/NC(=O)c2ccc3nc[nH]c3c2)c1O | 6.2 µM |
| COc1ccc(CNCC(O)COc2ccc(C(C)(C)c3ccccc3)cc2)cc1 (stereo unspecified) | 3.22 µM |
| COC(=O)Nc1nc2ccc(-c3n[nH]c(=O)c4ccccc34)cc2[nH]1 | 1.88 µM |
| CCN(CC)c1ccc(/C=N/NC(=O)CCC(=O)NCc2ccccc2)c(O)c1 | 8.23 µM |
| CC1(C)C=Cc2c(c3c(c4c(=O)c(-c5ccc(O)cc5)coc24)OC(C)(C)CC3)O1 | 7.5 µM |
| CCOC(=O)c1cccc(C2=CC(=O)C[C@H](c3ccc(Cl)cc3)C2)c1 | 2.82 µM |
| COc1ccc(-c2nc(NC(=O)c3cc(C(C)(C)C)nn3C)sc2C)cc1 | 14.2 µM |
| O=C(CSc1nc(-c2ccccc2)cc(C(F)(F)F)n1)c1cccc([N+](=O)[O-])c1 | 20.4 µM |

| SMILES | AC50 |
| --- | --- |
| Cc1ccc(NC(=O)c2ccc(Cl)c(N3C(=O)C=CC3=O)c2)cc1 | 8.19 µM |
| COc1ccc(/C=C/C(=O)c2ccc([N+](=O)[O-])o2)cc1 | 2.87 µM |
| Oc1ccc(C2=NN(c3ccccc3)C(c3ccc(F)cc3)C2)cc1 (stereo unspecified) | 3.45 µM |
| COc1cc(/C=N/Nc2nc(Nc3ccccc3)nc(-n3nc(C)cc3C)n2)cc(OC)c1OC | 3.7 µM |
| Cc1nc2c3cc(F)ccc3n(Cc3ccccc3)c2s1 | 0.825 µM |
| O=C(Nc1ccc2c(c1)OCO2)c1ccc(COc2ccc3c(c2)CCC3)o1 | 6.25 µM |
| O=C(c1ccco1)c1nnn(Cc2ccccc2)c1-c1ccccc1 | 6.47 µM |
| Cc1ccc(NC(=O)CN(C)C(=O)Cn2ncc(Cl)c(Cl)c2=O)cc1 | 4.22 µM |
| O/N=C(\c1ccc(Cl)cc1Cl)c1ncc(C(F)(F)F)cc1Cl | 13.9 µM |
| CN1CCN(C2Cc3ccccc3Sc3cc(C(F)(F)F)ccc32)CC1 (stereo unspecified) | 6.9 µM |
| CCCCNC(=S)N(C)/N=C/c1ccc2c(c1)OCO2 | 16.3 µM |
| CC(C)(C)C1CCC(CN2C(Nc3ccccc3)=NC[C@@H]2Cc2ccccc2)CC1 (stereo partly specified) | 6.54 µM |
| CCc1ccc2c(c1)[C@H]1OCC[C@H]1[C@@H](c1cccs1)N2 | 2.06 µM |
| COc1cccc(-c2sc3ccccc3c2-c2ccc(OCCN3CCCC3)cc2)c1 | 2.81 µM |
| O=C(C[C@@H]1C/C=C/CC[C@H](Cc2ccc(F)cc2)C(=O)OC[C@@H](Cc2ccccc2)NC1=O)N[C@H](CO)Cc1ccccc1 | 1.56 µM |
| Cc1ccc(C(=O)N/C(=C\c2ccc(-c3ccc(Br)cc3)o2)C(=O)NCCCN(C)C)cc1 | 4.38 µM |
| COc1ccc(N(C(=O)c2ccccc2C)S(=O)(=O)c2cccs2)cc1 | 0.231 µM |
| CCCCn1c(=O)c(C(=O)NCc2ccc(Cl)cc2)c(O)c2ccccc21 | 7.8 µM |
| Cc1onc(-c2c(Cl)cccc2Cl)c1C(=O)NNc1ccccc1 | 2.09 µM |
| CCCCSc1nc(C)cc(SCC(=O)N/N=C/c2cccc(OC)c2O)n1 | 11.8 µM |
| COc1cc2c(cc1NC(=O)c1cccc(S(=O)(=O)N(C)C)c1)oc1ccccc12 | 3.52 µM |
| Cc1ccc(C)c(Cc2c(C)nc3c(C(=O)NCc4ccc5c(c4)OCO5)cnn3c2C)c1 | 19 µM |

| SMILES | AC50 |
| --- | --- |
| O=C(Nc1ccc(O)c(-c2nc3ccccc3o2)c1)C1(c2ccc(Br)cc2)CCCC1 | > 19.5 µM (inactive) |
| c1cc2cc(-c3c(-c4ccc5c(c4)OCO5)noc3-c3ccsc3)ccc2[nH]1 | 4.19 µM |
| Cc1ccc(Cl)cc1NC(=S)N/N=C/c1cccc2ccccc12 | 0.298 µM |
| CCc1c(C)sc2nc(C(C)C)nc(SCC(=O)N3CCc4ccccc4C3)c12 | 4.22 µM |
| CCOC(=O)C1CCN(c2ncnc3c2c(-c2ccccc2)cn3-c2ccccc2)CC1 | 7.43 µM |
| Cc1cc(C)c(NC(=O)CSCc2c(C)noc2C)c(C)c1 | > 19.5 µM (inactive) |
| Cc1cc(-c2csc3nc[nH]c(=S)c23)cc(C)c1C | 18.8 µM |
| COC(=O)c1c(NC(=O)c2ccco2)sc2c1CCC2 | > 19.5 µM (inactive) |
| COC(=O)c1c(NC(=O)c2ccc(C)c(S(=O)(=O)Nc3ccccc3C)c2)sc2c1CCCC2 | 1.31 µM |
| COc1cccc(/C=N/Nc2ncc(C(F)(F)F)cc2Cl)c1O | 0.665 µM |
| N#CCc1ccc(NC(=O)Nc2cccc(Cl)c2)cc1 | 20 µM |
| CC(C)c1ccc(NC(=O)c2snc3ccc(Cl)cc23)cc1 | 3.62 µM |
| COC(=O)[C@@H]1C[C@]2(OC(=O)c3ccccc3)C=CC(=O)C[C@@H]2N1C(=O)OCc1ccccc1 | 7.87 µM |
| Cc1ccc(-c2cc(C(=O)N3CCN(c4ccc(O)cc4)CC3)c3ccccc3n2)cc1 | 8.38 µM |
| CCCOC(=O)C(=O)NNc1ccccc1 | 1.81 µM |
| COCC(C)NC(=O)NC1(C(F)(F)F)Oc2ccc(Cl)cc2O1 (stereo unspecified) | 18.3 µM |
| CC(C(=O)O)N1C(=O)CSc2ncccc21 (stereo unspecified) | > 19.5 µM (inactive) |
| CCn1cc([N+](=O)[O-])c(C(=O)Nc2nc(-c3ccc(C)cc3)c(C)s2)n1 | 5.54 µM |
| Cc1nc2c(sc3nc(N4CCOCC4)c4c(c32)CC(C)(C)OC4)c(-c2ccccc2)c1C(=O)O | 1.98 µM |
| O=C(CCC(=O)N1CCN(c2ccc(O)cc2)CC1)c1ccc(Br)cc1 | 2.64 µM |
| Cc1ccc(CNc2nc(-c3cccs3)nc3ccccc23)cc1 | 8.41 µM |
| O=C(O)CCCCCN1C(=O)/C(=C\c2cn(-c3ccccc3)nc2-c2cccs2)SC1=S | 3.5 µM |

| SMILES | AC50 |
| --- | --- |
| COc1ccc(-c2sc3ccccc3c2C#CCCO)cc1 | 6.5 µM |
| Cc1ccccc1CNc1ccc(C(CC(N)=O)NC(=O)c2ccc(Br)cc2)cc1[N+](=O)[O-] (stereo unspecified) | 3.96 µM |
| O=S(=O)(NC1CC(NS(=O)(=O)OCC(Cl)(Cl)Cl)C2CCCCC12)OCC(Cl)(Cl)Cl (stereo unspecified) | 1.47 µM |
| COc1ccc(N/N=C(/C(C)=O)N2CCCc3ccccc32)cc1 | 13.2 µM |
| COc1ccc(C(=O)Nc2ccc(OCC(F)(F)C(F)F)c(C(F)(F)F)c2)cc1OC | 5.48 µM |
| OC(CN1CCN(c2ccccn2)CC1)Cn1c2ccc(Cl)cc2c2cc(Cl)ccc21 (stereo unspecified) | 6.78 µM |
| CCCCN(C)c1nc(-c2ccco2)c2c(c1C#N)CC(C)(C)OC2 | 11.7 µM |
| CC(C)c1ccccc1OCC(O)CN(CC(O)COc1cccc2ccccc12)C(C)C (stereo unspecified) | 3.47 µM |
| CCc1cc2cccc(C)c2nc1SCC(=O)c1ccc(NC(C)=O)cc1 | 4.62 µM |
| NC(=O)CC(NC(=O)Cc1ccc(Br)cc1)c1ccc(NCc2cc(F)ccc2F)c([N+](=O)[O-])c1 (stereo unspecified) | 3.36 µM |
| CCOc1ccc(C(=O)CCC(=O)N2CCN(c3ccc(O)cc3)CC2)cc1 | 2.49 µM |
| NC(=O)CC(NC(=O)Cc1cccc2ccccc12)c1ccc(N2CCc3ccccc3C2)c([N+](=O)[O-])c1 (stereo unspecified) | 17.6 µM |
| Nc1[nH]n2c(=O)cc(-c3ccccc3)nc2c1N=Nc1ccccc1 | 13.3 µM |
| COc1ccccc1-c1oc2ccccc2c1C#CC1(N)CCCCC1 | 6.39 µM |
| CCCCCCSc1cc(-c2nc3cnccn3c2NCCCC)ccc1OC | 6.71 µM |
| COc1cc(OC)c2cc(C(=O)N/N=C/c3cccc(OC)c3O)[nH]c2c1 | 6.08 µM |
| CCCCC(=O)Nc1nc(C)c(-c2csc(Nc3cc(OC)ccc3OC)n2)s1 | 2.27 µM |
| COc1ccc(CNCCC(c2ccc(OC(C)C)cc2)c2ccccc2OC)cc1 (stereo unspecified) | 4.71 µM |
